In patent US20100034749A1, “Use of a Cationic Collodal Preparation for the Diagnosis and Treatment of Ocular Diseases” (MediGene AG, priority 2006, published 2010):

Tested on: laser induced CNV model in mice
Experiment: SLO imaging after i.v. application in laser induced CNV mouse model
Type: in vivo, C57/BI6 mice
Method: For animal experiments, the laser induced CNV model in mice was used as described by Tobe et al. (1998). In brief, C57/BI6 mice (8-12 weeks old) were anesthetized, pupils were dilated and 4-6 burns of 100 μm diameter were produced with a laser (100 mW, 100 μs). In 80-90% of the laser burns, CNV develops within about 14 days.
As read-out, Scanning Laser Opthalmoscopy (SLO), flat mount and histology are performed. 100 μl of the respective formulation was applied intravenously, immediately followed by SLO over a time course of about 120 min. Three different EndoTAG formulations are selected:
EndoTAG-A: DOTAP/DOPC/OG-DHPE=60/35/5 mol %, 10 mM total liposomal components in 10% trehalose (produced as described in Example 1). EndoTAG-B: DOTAP/DOPC/OG-DOPE=[…] mol %, 10 mM total liposomal components in 10% trehalose EndoTAG-C: DOTAP/DOPC/OG-DOPE/PEG-DOPE=60/30/5/5 mol %, 10 mM total liposomal components in 10% trehalose
As control, neutral liposomes (DOPC/OG-DOPE=95/5 mol %, 10 mM total lipid, in trehalose) is applied as well as an aqueous solution of Oregon Green (0.5 mM). Additional animals are used to carry out flat mounts and histology by sacrificing animals at the respective peak intensity as observed in SLO.

Substance: Oregon Green [free dye]
- Accumulation at lesion site / neovascular sites (SLO after i.v. application): did not show an accumulation
- Staining of the vasculature / neovasculature (after 60 min, equivalent concentrations): no increased staining of the vasculature
